The test system of one assay is MDA-MB-468. Description: Growth inhibition of human MDA-MB-468 cells assessed as cell growth at 3 uM incubated for 48 hrs by sulforhodamine B assay relative to control. Conditions: MDA-MB-468, 48 h, read-out: Activity. The class given is functional.
Assay [1] concerns the target Mitogen-activated protein kinase 1 (Homo sapiens) (UniProt P28482). In words: Inhibition of human ERK2 at 10 uM using myelin basic protein as substrate in presence of [33P]ATP by Hotspot assay relative to control.
For assay [2], the system named is A498. In words: Growth inhibition of human A498 cells assessed as cell growth at 0.005 uM incubated for 48 hrs by sulforhodamine B assay relative to control. The class given is functional. The note with it: A498, 48 h, read-out: Activity.
The subject of a further assay is NCI-H322M. In words: Growth inhibition of human NCI-H322M cells assessed as cell growth at 50 uM incubated for 48 hrs by sulforhodamine B assay relative to control. The class given is functional. Conditions: read-out: Activity. For orientation: In SRB staining, fixed cells bind dye roughly in proportion to their protein.
The subject of assay [3] is MDA-MB-231. Description: Growth inhibition of human MDA-MB-231 cells assessed as cell growth at 0.005 uM incubated for 48 hrs by sulforhodamine B assay relative to control. The class given is functional. The note with it: MDA-MB-231, 48 h, read-out: Activity.
Assay [4] relates to HCT-116. Description: Growth inhibition of human HCT116 cells assessed as cell growth at 0.5 uM incubated for 48 hrs by sulforhodamine B assay relative to control. The format is functional. The note with it: HCT-116, 48 h, read-out: Activity.
The test system of assay [5] is BT-549. In words: Growth inhibition of human BT549 cells assessed as cell growth at 0.05 uM incubated for 48 hrs by sulforhodamine B assay relative to control. The note with it: BT-549, 48 h, read-out: Activity. The class given is functional.
For the next assay, the system named is K562. In words: Growth inhibition of human K562 cells assessed as cell growth at 0.05 uM incubated for 48 hrs by sulforhodamine B assay relative to control. The class given is functional. The note with it: K562, 48 h, read-out: Activity.
The next assay has as its system NCI-H226. In words: Growth inhibition of human NCI-H226 cells assessed as cell growth at 50 uM incubated for 48 hrs by sulforhodamine B assay relative to control. The format is functional. The note with it: NCI-H226, 48 h, read-out: Activity.
Another assay deals with HL-60(TB). Description: Growth inhibition of human HL-60(TB) cells assessed as cell growth at 5 uM incubated for 48 hrs by sulforhodamine B assay relative to control. The format is functional. The note with it: HL-60, 48 h, read-out: Activity.
The subject of the next assay is A549. Description: Growth inhibition of human A549/ATCC cells assessed as cell growth at 0.005 uM incubated for 48 hrs by sulforhodamine B assay relative to control. The format is functional. Conditions: A549, 48 h, read-out: Activity.
The test system of another assay is HOP-62. In words: Growth inhibition of human HOP62 cells assessed as cell growth at 5 uM incubated for 48 hrs by sulforhodamine B assay relative to control. The format is functional. The note with it: HOP-62, 48 h, read-out: Activity.
Another assay relates to SK-MEL-28. Description: Growth inhibition of human SK-MEL-28 cells assessed as cell growth at 0.5 uM incubated for 48 hrs by sulforhodamine B assay relative to control. The format is functional. Conditions: SK-MEL-28, 48 h, read-out: Activity.
Another assay concerns NCI-H460. Description: Growth inhibition of human NCI-H460 cells assessed as cell growth at 0.005 uM incubated for 48 hrs by sulforhodamine B assay relative to control. The class given is functional. The note with it: NCI-H460, 48 h, read-out: Activity.
Assay [6] concerns SN12C. In words: Growth inhibition of human SN12C cells assessed as cell growth at 0.5 uM incubated for 48 hrs by sulforhodamine B assay relative to control. The format is functional. Conditions: read-out: Activity.
The next assay relates to HCT-15. In words: Growth inhibition of human HCT15 cells assessed as cell growth at 50 uM incubated for 48 hrs by sulforhodamine B assay relative to control. The note with it: HCT-15, 48 h, read-out: Activity. The class given is functional.
The subject of the next assay is UACC-62. Description: Growth inhibition of human UACC62 cells assessed as cell growth at 50 uM incubated for 48 hrs by sulforhodamine B assay relative to control. The class given is functional. Conditions: UACC-62, 48 h, read-out: Activity.
The next assay deals with U-251. Description: Growth inhibition of human U251 cells assessed as cell growth at 5 uM incubated for 48 hrs by sulforhodamine B assay relative to control. Conditions: U-251, 48 h, read-out: Activity. The class given is functional.
In a further assay the test system is MCF7. In words: Growth inhibition of human MCF7 cells assessed as cell growth at 0.5 uM incubated for 48 hrs by sulforhodamine B assay relative to control. The class given is functional. Conditions: MCF7, 48 h, read-out: Activity.
The next assay deals with HCC 2998. Description: Growth inhibition of human HCC2998 cells assessed as cell growth at 0.05 uM incubated for 48 hrs by sulforhodamine B assay relative to control. The class given is functional. Conditions: HCC 2998, 48 h, read-out: Activity.
The test system of another assay is TK-10. In words: Growth inhibition of human TK10 cells assessed as cell growth at 50 uM incubated for 48 hrs by sulforhodamine B assay relative to control. The format is functional. The note with it: TK-10, 48 h, read-out: Activity.
The subject of assay [7] is BT-549. In words: Growth inhibition of human BT549 cells assessed as cell growth at 5 uM incubated for 48 hrs by sulforhodamine B assay relative to control. The format is functional. The note with it: BT-549, 48 h, read-out: Activity.
Another assay concerns DU-145. Description: Growth inhibition of human DU145 cells assessed as cell growth at 0.5 uM incubated for 48 hrs by sulforhodamine B assay relative to control. The class given is functional. Conditions: DU-145, 48 h, read-out: Activity.
The subject of assay [8] is HCT-116. Description: Growth inhibition of human HCT116 cells assessed as cell growth at 50 uM incubated for 48 hrs by sulforhodamine B assay relative to control. Conditions: HCT-116, 48 h, read-out: Activity. The class given is functional.
For assay [9], the system named is HCT-116. Description: Growth inhibition of human HCT116 cells assessed as cell growth at 0.05 uM incubated for 48 hrs by sulforhodamine B assay relative to control. The note with it: HCT-116, 48 h, read-out: Activity. The class given is functional.
Assay [10] has as its system A498. In words: Growth inhibition of human A498 cells assessed as cell growth at 0.05 uM incubated for 48 hrs by sulforhodamine B assay relative to control. The format is functional. The note with it: A498, 48 h, read-out: Activity.
In assay [11] the test system is SN12C. In words: Growth inhibition of human SN12C cells assessed as cell growth at 0.005 uM incubated for 48 hrs by sulforhodamine B assay relative to control. The note with it: read-out: Activity. The class given is functional.
The next assay relates to OVCAR-4. In words: Growth inhibition of human OVCAR4 cells assessed as cell growth at 0.05 uM incubated for 48 hrs by sulforhodamine B assay relative to control. The note with it: OVCAR-4, 48 h, read-out: Activity. The class given is functional.
The subject of assay [12] is MDA-MB-231. Description: Growth inhibition of human MDA-MB-231 cells assessed as cell growth at 5 uM incubated for 48 hrs by sulforhodamine B assay relative to control. The format is functional. The note with it: MDA-MB-231, 48 h, read-out: Activity.
The next assay has as its system 786-0. Description: Growth inhibition of human 786-0 cells assessed as cell growth at 0.05 uM incubated for 48 hrs by sulforhodamine B assay relative to control. The format is functional. The note with it: 786-0, 48 h, read-out: Activity.
The subject of the next assay is COLO 205. Description: Growth inhibition of human COLO205 cells assessed as cell growth at 0.5 uM incubated for 48 hrs by sulforhodamine B assay relative to control. The class given is functional. Conditions: COLO 205, 48 h, read-out: Activity.
Another assay deals with RPMI-8226. In words: Growth inhibition of human RPMI8226 cells assessed as cell growth at 50 uM incubated for 48 hrs by sulforhodamine B assay relative to control. The format is functional. The note with it: RPMI-8226, 48 h, read-out: Activity.
The next assay relates to T47D. Description: Growth inhibition of human T47D cells assessed as cell growth at 0.005 uM incubated for 48 hrs by sulforhodamine B assay relative to control. Conditions: read-out: Activity. The class given is functional.

The structures appear in SMILES notation.

What is called inhibition is the change of the read-out against control, counted positive when it falls.

Chain of Mitogen-activated protein kinase 1 (Homo sapiens) (P28482 whole entry): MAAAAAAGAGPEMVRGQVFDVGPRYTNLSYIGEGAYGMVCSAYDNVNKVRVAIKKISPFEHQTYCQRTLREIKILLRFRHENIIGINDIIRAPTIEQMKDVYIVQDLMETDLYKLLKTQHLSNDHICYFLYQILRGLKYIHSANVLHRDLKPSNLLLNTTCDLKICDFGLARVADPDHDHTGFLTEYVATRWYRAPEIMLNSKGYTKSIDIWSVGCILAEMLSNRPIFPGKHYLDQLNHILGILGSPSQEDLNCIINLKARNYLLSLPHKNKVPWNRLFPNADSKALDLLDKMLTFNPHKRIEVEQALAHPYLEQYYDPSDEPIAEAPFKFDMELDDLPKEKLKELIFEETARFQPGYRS

Regarding `Cc1nc2cc(O)c(O)cc2cc1Oc1ccc(NC(=O)Nc2ccc(Cl)c(Cl)c2)cc1`, in the assay with MDA-MB-468, the growth at 3 µM came to 92%.
Regarding `COc1cc2cc(Oc3ccc(NC(=O)Nc4ccc(Cl)c(C(F)(F)F)c4)cc3)c(C)nc2cc1OC`, the inhibition in assay [1] came out at 1.04%.
Turning to `COc1cc2cc(Oc3ccc(NC(=O)Nc4cccc(C(F)(F)F)c4)cc3)c(C)nc2cc1OC`, the growth at 0.005 µM with A498 [2] is 113%; with MDA-MB-231 [3], 93%; in the assay on A549, 98%; with NCI-H460 it was 96%; with SN12C [11], 95%; in the assay with T47D, 90%. The growth at 50 µM was -29% in the assay with NCI-H322M; -67% in the assay with NCI-H226; -10% in the assay on HCT-15; -44% with UACC-62; -46% in the assay on TK-10; -86% in the assay on HCT-116 [8]. For the same compound, the growth at 50 µM in the assay with RPMI-8226 was -47%. For the same compound, the growth at 0.5 µM was 88% in the assay with HCT-116 [4]; 92% in the assay with SK-MEL-28; 95% in the assay on SN12C [6]; 85% in the assay with MCF7; 104% in the assay with DU-145; 102% in the assay with COLO 205. Also, the growth at 0.05 µM was 84% in the assay with BT-549 [5]; 99% in the assay with K562; 105% in the assay on HCC 2998; 93% with HCT-116 [9]; 106% in the assay on A498 [10]; 95% with OVCAR-4. Moreover, the growth at 0.05 µM in the assay on 786-0 was found to be 82%. Moreover, the growth at 5 µM in the assay on HL-60(TB) was -13%; in the assay on HOP-62 it was 25%; in the assay on U-251, 5%; in the assay on BT-549 [7] it was 7%; in the assay with MDA-MB-231 [12] it was -7%.

Values taken from ChEMBL document CHEMBL3994622, “Design and synthesis of new RAF kinase-inhibiting antiproliferative quinoline derivatives. Part 2: Diarylurea derivatives” (Eur J Med Chem, 2017).
